Holding throughout (type): cell-based, human
In experiment [1] the test system is Pdx1 expressing pancreatic progenitor cells (Stage 4 differentiation). The experiment is described as follows: PKC inhibitor in modified stage 4 medium during S4d5-S4d6; cell composition at end of Stage 5. Particulars: for change in percentage of NKX6.1+/ISL1+ β cells at the end of Stage 5: FIG. 33A; for change in percentage of NKX6.1+/ISL1− SC-EC cells at the end of Stage 5: FIG. 33B.

Experiment [2] relates to Pdx1 expressing pancreatic progenitor cells (Stage 4/Stage 5 differentiation). In words: PKC activator in Stage 4 and/or Stage 5 medium; FACS analysis of cell composition at end of Stage 5. The text has this: (§1) In certain embodiments described herein, induced pluripotent stem cells are differentiated into SC-Di cells or precursors thereof in vitro. An exemplary differentiation protocol is outlined in FIG. 39. Endocrine progenitor cells produced by Stage 5 can comprise a mixture of cell types. For example, the composition can include NKX6.1+/ISL1+β cells, NKX6.1−/ISL1+α cells, NKX6.1−/ISL1− double negative cells, and enterochromaffin (EC) cells (FIG. 18B and FIG. 18C). For example, FIG. 18B and FIG. 18C show a Stage 5 process intermediate cell composition that comprises about 25% NKX6.1+/ISL1+β cells, about 14.5% NKX6.1−/ISL1+α cells, about 42.4% NKX6.1−/ISL1− double negative cells, and about 18.0% enterochromaffin (EC) cells. For certain applications described herein, such as the production of SC-islets, both NKX6.1−/ISL1− double negative (DN)SC-cells and SC-enterochromaffin (EC) cells are off target cell populations. To improve the Stage 5 cellular composition (e.g., increased percentage of NKX6.1+/ISL1+ SC-β cells and NKX6.1−/ISL1+ SC-α cells; decreased percentage of NKX6.1−/ISL1− SC-DN cells and SC-EC cells), modifications to the Stage 4 and/or Stage 5 medium were evaluated (FIG. 19).
To further improve the Stage 5 cellular composition (e.g., increased percentage of NKX6.1+/ISL1+β cells and NKX6.1−/ISL1+α cells; decreased percentage of NKX6.1−/ISL1− double negative cells and enterochromaffin (EC) cells), further modifications to the Stage 4 and/or Stage 5 medium were evaluated (FIG. 19).
As shown in FIGS. 25A-25B and FIG. 27, PKC activation (0.5 μM phorbol 12,13-dibutyrate) during Stage 4 decreases the percentage of VMAT1+ SC-EC cells at the end of Stage 5 from 24.8% to 4.9%.
FIGS. 35A-35B show PKC activation increases the percentage of NKX6.1−/ISL1+ SC-α cells and decreases the percentage of NKX6.1+/ISL1− SC-EC cells at the end of Stage 5 when a PKC activator is used through several times points through Stage 4 or Stage 4 through Stage 5, including S4d3-S4d6, S4d3-S5d2, S4d5-S4d6, and S4d5-S5d2.
(In flow cytometry, cells or beads pass a laser one at a time.)

The test system is the same in experiment [3]. In words: TNKS/Wnt inhibitor in Stage 4 and/or Stage 5 medium; cell composition at end of Stage 5.
From the text: as §1
As shown in FIGS. 20A-20B and FIGS. 21A-21B, TNKS/Wnt inhibition during Stage 4 increased the percentage of NKX6.1+/ISL1+β cells (FIG. 21A; FIGS. 20A-20B) and decreased the percentage of NKX6.1−/ISL1− double negative cells (FIG. 21B; FIGS. 20A-20B) at the end of stage 5. Multiple TNKS/Wnt inhibitors that increase the percentage of NKX6.1+/ISL1+β cells at the end of Stage 5 at least two-fold over the control were identified (FIG. 28).
FIGS. 30A-30B show TNKS inhibition increases the percentage of NKX6.1+/ISL1+SC-β cells and decreases the percentage of NKX6.1−/ISL1− SC-DN cells at the end of Stage 5 when TNK inhibitor is used through several times points through Stage 4 or Stage 4 through Stage 5, including S4d3-S4d6, S4d3-S5d2, S4d5-S4d6, and S4d5-S5d2.

Consider five compounds from patent US11999971B2, “Stem cell derived islet differentiation” (Vertex Pharmaceuticals Incorporated, priority 2018, dated 2024).

As to `Cn1cc(C2=C(c3cn(CCCSC(=N)N)c4ccccc34)C(=O)NC2=O)c2ccccc21` [Ro 31-8220], in experiment [1], the “change in percentage of NKX6.1+/ISL1+ β cells at the end of Stage 5” value was “decrease” and the “change in percentage of NKX6.1+/ISL1− SC-EC cells at the end of Stage 5” value was “decrease”.

For `CCCC(=O)O[C@@H]1[C@@H](C)[C@@]2(O)[C@@H](C=C(CO)C[C@]3(O)C(=O)C(C)=C[C@@H]23)[C@@H]2C(C)(C)[C@]12OC(=O)CCC` [phorbol 12,13-dibutyrate, Phorbol 12,13-dibutyrate], in experiment [2] (0.5 μM during S4d5-S5d2, control 32.1%), the “percentage of NKX6.1+/ISL1− SC-EC cells at the end of Stage 5” value came out at 14.7%. Also, in experiment [2] (0.5 μM during S4d5-S5d2, control printed 1 1.3%), the “percentage of NKX6.1−/ISL1+ SC-α cells at the end of Stage 5” value was 38.2%. For the same compound, the “percentage of glucagon+ SC-α cells at the end of Stage 5” value in experiment [2] (0.5 μM during Stage 4, control 5.7%) is 23.7%. In addition, in experiment [2] (0.5 μM during Stage 4, control 10.4%), the “percentage of ARX+ SC-α cells at the end of Stage 5” value is on record as 38.4%. The “percentage of VMAT1+ SC-EC cells at the end of Stage 5” value in experiment [2] (0.5 μM during Stage 4, control 24.8%) was 4.9%. Moreover, the “percentage of CDX2+ SC-EC cells at the end of Stage 5” value in experiment [2] (0.5 μM during Stage 4, control 66.4%) turned out to be 21.5%. For the same compound, the “change in percentage of glucagon positive SC-α cells at the end of stage 5 vs control” value in experiment [2] (0.5 μM during stage 4, FACS, FIG. 23) is “increased”. Also, the “change in percentage of ARX positive SC-α cells at the end of stage 5 vs control” value in experiment [2] (0.5 μM during stage 4, FACS, FIG. 24) is on record as “increased”. Further, in experiment [2] (0.5 μM during stage 4, FACS, FIG. 25), the “change in percentage of VMAT1 positive SC-EC cells at the end of stage 5 vs control” value was “decreased”. Also, the “change in percentage of CDX2 positive SC-EC cells at the end of stage 5 vs control” value in experiment [2] (0.5 μM during stage 4, FACS, FIG. 26) is recorded as “decreased”.

`Cc1cc(N2C[C@@H](C)N[C@@H](C)C2)ncc1-c1ccc(-c2nc3c(ccn3C)c(=O)[nH]2)cc1` [AZ6102]: the “change in percentage of NKX6.1+/ISL1+ SC-β cells at the end of stage 5 vs control” value is “increased” in experiment [3] (0.5 μM during S4d5-S4d6, FACS, FIG. 30A) and “increased” in experiment [3] (0.5 μM during Stage 4 or Stage 5, FIG. 31A). In experiment [3] (0.5 μM during Stage 4 or Stage 5, FIG. 31B), the “change in percentage of NKX6.1−/ISL1− SC-DN cells at the end of stage 5 vs control” value is recorded as “decreased”.

As for `COc1ccc2c(c1)c(C1=C(c3c[nH]c4ccccc34)C(=O)NC1=O)cn2CCCN(C)C` [Go 6983], in experiment [1], the “change in percentage of NKX6.1+/ISL1+ β cells at the end of Stage 5” value is recorded as “decrease” and the “change in percentage of NKX6.1+/ISL1− SC-EC cells at the end of Stage 5” value is on record as “decrease”.

As for `CN1CCN(c2nc(C3=C(c4c[nH]c5ccccc45)C(=O)NC3=O)c3ccccc3n2)CC1` [Sotrastaurin], in experiment [1], the “change in percentage of NKX6.1+/ISL1+ β cells at the end of Stage 5” value is recorded as “decrease” and the “change in percentage of NKX6.1+/ISL1− SC-EC cells at the end of Stage 5” value was “decrease”.
